Measured values taken from patent US12729377B2, “RNAi agents and compositions for inhibiting expression of angiopoietin-like 3 (ANGPTL3), and methods of use” (Arrowhead Pharmaceuticals, Inc., priority 2017, dated 2026).
In the oligonucleotide strings, read from the 5' end, every base follows the letter of its sugar. An asterisk marks phosphorothioate; unmarked linkages are phosphodiester. Other units and linkages are bracketed, terminal groups are in braces. A string of capitals states the bases alone. {NAG37} = tridentate N-acetyl-galactosamine targeting ligand, structure (NAG37)s; [invAb] = inverted abasic unit; m = 2'-O-methyl; f = 2'-fluoro

Key:
Type in all cases: in vivo, cynomolgus macaque (Macaca fascicularis)
ANGPTL3 protein [1] = test: Example 9: serum ANGPTL3 protein by ELISA in cynomolgus monkeys; conditions: for Average ANGPTL3 Protein Normalized to Pre-Treatment: 2.0 mg/kg single SC injection day 1, cynos, n=3
Protocol: (§1) Additional ANGPTL3 RNAi agents were evaluated in cynomolgus monkeys. On day 1, cynomolgus macaque (Macaca fascicularis) primates (also referred to herein as “cynos”) were administered a single subcutaneous injection of 0.3 mL/kg (approximately 2-3 mL volume, depending on animal mass) containing 2.0 mg/kg of an ANGPTL3 RNAi agent, which included either AD05488, AD05743, AD05775, or AD05841, each formulated in saline. […] ANGPTL3 RNAi agents AD05488, AD05743, and AD05775 included nucleotide sequences designed to target position 304 of the ANGPTL3 gene. ANGPTL3 RNAi agent AD05841 included nucleotide sequences designed to target position 1035 of the ANGPTL3 gene.
(§2) Three (3) cynos in each group were tested (n=3). Blood samples were drawn and serum samples were analyzed on days −14 (predose), −7 (predose), 1 (pre-dose), 8, 15, 22, 29, and 35. Cynos were fasted overnight prior to each collection. ANGPTL3 protein levels in serum were measured by ELISA assay (R&D Systems), according to the manufacturer's recommendations. Triglycerides, total cholesterol, high-density lipoprotein (HDL), and low-density lipoprotein (LDL) in serum were measured on a Cobas® Integra 400 (Roche Diagnostics), according to the manufacturer's recommendations.
(§3) The ANGPTL3 protein levels, triglyceride levels, total cholesterol levels, HDL levels, and LDL levels for each animal were normalized. For normalization, the level of ANGPTL3 protein, triglyceride, HDL, and total cholesterol, respectively, for each animal at a time point, was divided by the average pre-treatment level of expression in that animal (in this case at days −14, −7, and 1) to determine the ratio of expression “normalized to pre-treatment.”

ANGPTL3 gene [2] = test: Example 9: serum triglycerides in cynomolgus monkeys; conditions: 2.0 mg/kg single SC injection day 1, cynos, n=3
Protocol: as §1, §2, §3

ANGPTL3 gene [3] = test: Example 9: serum total cholesterol in cynomolgus monkeys; conditions: 2.0 mg/kg single SC injection day 1, cynos, n=3
Protocol: as §1, §2, §3

ANGPTL3 gene [4] = test: Example 9: serum HDL in cynomolgus monkeys; conditions: 2.0 mg/kg single SC injection day 1, cynos, n=3
Protocol: as §1, §2, §3

ANGPTL3 gene [5] = test: Example 9: serum LDL in cynomolgus monkeys; conditions: 2.0 mg/kg single SC injection day 1, cynos, n=3
Protocol: as §1, §2, §3

ANGPTL3 protein [6] = test: Example 8: serum ANGPTL3 protein by ELISA in cynomolgus monkeys; conditions: for Avg ANGPTL3 protein normalized to pre-treatment: 3.0 mg/kg single SC injection day 1, cynos, n=2
Protocol: (§4) Additional ANGPTL3 RNAi agents were evaluated in cynomolgus monkeys. On day 1, cynomolgus macaque (Macaca fascicularis) primates (also referred to herein as “cynos”) were administered a single subcutaneous injection of 0.3 mL/kg (approximately 1-2 mL volume, depending on animal mass) containing 3.0 mg/kg of one of ANGPTL3 RNAi agent AD05577, AD05307, AD05488, AD05654, or AD05659, each formulated in saline.
as §2, with “Two (2)” for “Three (3)”, “(n=2).” for “(n=3).”, “−8 (pre-dose),” for “−14 (predose), −7 (predose),”, “36.” for “35.”
(§5) The ANGPTL3 protein levels, triglyceride levels, total cholesterol levels, HDL levels, and LDL levels for each animal were normalized. For normalization, the level of ANGPTL3 protein, triglyceride, HDL, and total cholesterol, respectively, for each animal at a time point, was divided by the average pre-treatment level of expression in that animal (in this case at days −8, and 1 (pre-dose)) to determine the ratio of expression “normalized to pre-treatment.”

ANGPTL3 gene [7] = test: Example 8: serum triglycerides in cynomolgus monkeys; conditions: 3.0 mg/kg single SC injection day 1, cynos, n=2
Protocol: as §4
as §2, with “Two (2)” for “Three (3)”, “(n=2).” for “(n=3).”, “−8 (pre-dose),” for “−14 (predose), −7 (predose),”, “36.” for “35.”
as §5

ANGPTL3 gene [8] = test: Example 8: serum total cholesterol in cynomolgus monkeys; conditions: 3.0 mg/kg single SC injection day 1, cynos, n=2
Protocol: as §4
as §2, with “Two (2)” for “Three (3)”, “(n=2).” for “(n=3).”, “−8 (pre-dose),” for “−14 (predose), −7 (predose),”, “36.” for “35.”
as §5

ANGPTL3 gene [9] = test: Example 8: serum HDL in cynomolgus monkeys; conditions: 3.0 mg/kg single SC injection day 1, cynos, n=2
Protocol: as §4
as §2, with “Two (2)” for “Three (3)”, “(n=2).” for “(n=3).”, “−8 (pre-dose),” for “−14 (predose), −7 (predose),”, “36.” for “35.”
as §5

ANGPTL3 gene [10] = test: Example 8: serum LDL in cynomolgus monkeys; conditions: 3.0 mg/kg single SC injection day 1, cynos, n=2
Protocol: as §4
as §2, with “Two (2)” for “Three (3)”, “(n=2).” for “(n=3).”, “−8 (pre-dose),” for “−14 (predose), −7 (predose),”, “36.” for “35.”
as §5

AD05743: RNAi agent duplex: antisense AM07235-AS, sense AM07579-SS (antisense mU*fA*mC*fUmGfAmUfCmAfAmAfUmAfUmGfUmUfGmAfG*mC; sense {NAG37}*[invAb]*mGmCfUmCfAmAfCmAfUfAfUmUmUmGmAmUmCmAmGmUmA*[invAb])
Average ANGPTL3 Protein Normalized to Pre-Treatment (ANGPTL3 protein [1]; Day 8): 0.349 | Average ANGPTL3 Protein Normalized to Pre-Treatment (ANGPTL3 protein [1]; Day 15): 0.316 | Average ANGPTL3 Protein Normalized to Pre-Treatment (ANGPTL3 protein [1]; Day 22): 0.322 | Average ANGPTL3 Protein Normalized to Pre-Treatment (ANGPTL3 protein [1]; Day 29): 0.381 | Average ANGPTL3 Protein Normalized to Pre-Treatment (ANGPTL3 protein [1]; Day 35): 0.346 | reduction in ANGPTL3 protein compared to pre-treatment (ANGPTL3 protein [1]; each of the measured time points, single 2.0 mg/kg subcutaneous, cynomolgus monkeys): reduction | Average Triglycerides Normalized to Pre-Treatment (ANGPTL3 gene [2]; Day 8): 0.646 | Average Triglycerides Normalized to Pre-Treatment (ANGPTL3 gene [2]; Day 15): 0.708 | Average Triglycerides Normalized to Pre-Treatment (ANGPTL3 gene [2]; Day 22): 0.458 | Average Triglycerides Normalized to Pre-Treatment (ANGPTL3 gene [2]; Day 29): 0.479 | Average Triglycerides Normalized to Pre-Treatment (ANGPTL3 gene [2]; Day 35): 0.521 | Average Total Cholesterol Normalized to Pre-Treatment (ANGPTL3 gene [3]; Day 8): 0.925 | Average Total Cholesterol Normalized to Pre-Treatment (ANGPTL3 gene [3]; Day 15): 0.758 | Average Total Cholesterol Normalized to Pre-Treatment (ANGPTL3 gene [3]; Day 22): 0.768 | Average Total Cholesterol Normalized to Pre-Treatment (ANGPTL3 gene [3]; Day 29): 0.807 | Average Total Cholesterol Normalized to Pre-Treatment (ANGPTL3 gene [3]; Day 35): 0.752 | Average HDL Normalized to Pre-Treatment (ANGPTL3 gene [4]; Day 8): 0.849 | Average HDL Normalized to Pre-Treatment (ANGPTL3 gene [4]; Day 15): 0.797 | Average HDL Normalized to Pre-Treatment (ANGPTL3 gene [4]; Day 22): 0.666 | Average HDL Normalized to Pre-Treatment (ANGPTL3 gene [4]; Day 29): 0.757 | Average HDL Normalized to Pre-Treatment (ANGPTL3 gene [4]; Day 35): 0.677 | Average LDL Normalized to Pre-Treatment (ANGPTL3 gene [5]; Day 8): 1.055 | Average LDL Normalized to Pre-Treatment (ANGPTL3 gene [5]; Day 15): 0.825 | Average LDL Normalized to Pre-Treatment (ANGPTL3 gene [5]; Day 22): 0.986 | Average LDL Normalized to Pre-Treatment (ANGPTL3 gene [5]; Day 29): 0.941 | Average LDL Normalized to Pre-Treatment (ANGPTL3 gene [5]; Day 35): 0.911

AD05577: RNAi agent duplex: antisense AM07350-AS, sense AM07002-SS (antisense mU*fG*mU*mUmGmAmAmUmUmAmAfUmGfUmCfCmAfUmGfG*mA; sense {NAG37}*[invAb]*mUmCmCmAmUmGmGmAfCfAfUmUmAmAmUmUmCmAmAmCmA*[invAb])
Avg ANGPTL3 protein normalized to pre-treatment (ANGPTL3 protein [6]; Day 8): 0.503 | Avg ANGPTL3 protein normalized to pre-treatment (ANGPTL3 protein [6]; Day 15): 0.544 | Avg ANGPTL3 protein normalized to pre-treatment (ANGPTL3 protein [6]; Day 22): 0.754 | Avg ANGPTL3 protein normalized to pre-treatment (ANGPTL3 protein [6]; Day 29): 0.586 | Avg ANGPTL3 protein normalized to pre-treatment (ANGPTL3 protein [6]; Day 36): 0.479 | reduction in ANGPTL3 protein compared to pre-treatment (ANGPTL3 protein [6]; all measured time points, single 3.0 mg/kg subcutaneous, cynomolgus monkeys): reduction | Avg TG normalized to pre-treatment (ANGPTL3 gene [7]; Day 8): 1.159 | Avg TG normalized to pre-treatment (ANGPTL3 gene [7]; Day 15): 0.977 | Avg TG normalized to pre-treatment (ANGPTL3 gene [7]; Day 22): 0.855 | Avg TG normalized to pre-treatment (ANGPTL3 gene [7]; Day 29): 0.886 | Avg TG normalized to pre-treatment (ANGPTL3 gene [7]; Day 36): 0.748 | Avg Total Chol normalized to pre-treatment (ANGPTL3 gene [8]; Day 8): 0.885 | Avg Total Chol normalized to pre-treatment (ANGPTL3 gene [8]; Day 15): 0.931 | Avg Total Chol normalized to pre-treatment (ANGPTL3 gene [8]; Day 22): 0.844 | Avg Total Chol normalized to pre-treatment (ANGPTL3 gene [8]; Day 29): 0.839 | Avg Total Chol normalized to pre-treatment (ANGPTL3 gene [8]; Day 36): 0.936 | Average HDL Normalized to Pre-Treatment (ANGPTL3 gene [9]; Day 8): 0.855 | Average HDL Normalized to Pre-Treatment (ANGPTL3 gene [9]; Day 15): 0.788 | Average HDL Normalized to Pre-Treatment (ANGPTL3 gene [9]; Day 22): 0.818 | Average HDL Normalized to Pre-Treatment (ANGPTL3 gene [9]; Day 29): 0.857 | Average HDL Normalized to Pre-Treatment (ANGPTL3 gene [9]; Day 36): 0.852 | Average LDL Normalized to Pre-Treatment (ANGPTL3 gene [10]; Day 8): 0.951 | Average LDL Normalized to Pre-Treatment (ANGPTL3 gene [10]; Day 15): 1.091 | Average LDL Normalized to Pre-Treatment (ANGPTL3 gene [10]; Day 22): 0.860 | Average LDL Normalized to Pre-Treatment (ANGPTL3 gene [10]; Day 29): 0.991 | Average LDL Normalized to Pre-Treatment (ANGPTL3 gene [10]; Day 36): 0.925
